Series [1] is described as follows: Cytotoxicity against human VA13 cells assessed as reduction in cell viability measured after 72 hrs by MTT assay. The class given is cell-based. As to conditions: WI-38 VA13 cells. On the technique in general: Tetrazolium dyes change colour on reduction, which living cells bring about.
For a further series, the system named is CWR22R. Kind of series: Cytotoxicity against PSMA-positive human 22Rv1 cells assessed as reduction in cell viability measured after 72 hrs by MTT assay. The class given is functional. As to conditions: 22Rv1, 72 h.
Series [2] is described as follows: Cytotoxicity against human MCF7 cells assessed as reduction in cell viability measured after 72 hrs by MTT assay. The class given is cell-based.
Series [3] is described as follows: Selectivity ratio of CC50 for human PSMA-deficient PC3 cells to CC50 for PSMA-positive human 22Rv1 cells. The class given is functional.
The test system of a further series is LNCaP. Kind of series: Cytotoxicity against PSMA-positive human LNCAP cells assessed as reduction in cell viability measured after 72 hrs by MTT assay. In kind it is functional.
The subject of a further series is PC-3. In words: Cytotoxicity against PSMA-deficient human PC3 cells assessed as reduction in cell viability measured after 72 hrs by MTT assay. In kind it is functional. The note with it: PC-3, 72 h.
Series [4] can be described thus: Cytotoxicity against HEK293T cells assessed as reduction in cell viability measured after 72 hrs by MTT assay. The class given is cell-based, HEK-293T. As to conditions: human.
Series [5] can be described thus: Cytotoxicity against human A549 cells assessed as reduction in cell viability measured after 72 hrs by MTT assay. The class given is cell-based.
Series [6] in a line: Selectivity ratio of CC50 for human VA13 cells to CC50 for PSMA-positive human LNCAP cells.
The nature of series [7]: Selectivity ratio of CC50 for human PSMA-deficient PC3 cells to CC50 for PSMA-positive human LNCAP cells. In kind it is functional.
A short description of series [8]: Selectivity ratio of CC50 for human VA13 cells to CC50 for PSMA-positive human 22Rv1 cells.

For orientation: CC50 means the concentration giving 50% cytotoxicity. With `CC(=O)O[C@H]1C(=O)[C@@]2(C)[C@H]([C@H](OC(=O)c3ccccc3)[C@]3(O)C[C@H](OC(=O)[C@H](OC(=O)CCCc4cn(CCCCCCCCCCC(=O)N(CCCC[C@H](NC(=O)N[C@@H](CCC(=O)O)C(=O)O)C(=O)O)Cc5ccc(F)cc5)nn4)[C@@H](NC(=O)c4ccccc4)c4ccccc4)C(C)=C1C3(C)C)[C@]1(OC(C)=O)CO[C@@H]1C[C@@H]2O`, the CC50 at 72 h is 27 nM in [1], 66 nM in [2], 41 nM in series [4] and less than 30 nM in series [5]. Moreover, the results for the CC50 in the series on CWR22R, in the series with LNCaP and with PC-3 were 1140 nM, 467 nM and 479 nM, respectively. Also, the Selectivity ratio in [3] came out at 0.62; in series [6], 0.54; in series [7], 0.51; in series [8] it was 0.65.

In the case of `CC(=O)O[C@H]1C(=O)[C@@]2(C)[C@H]([C@H](OC(=O)c3ccccc3)[C@]3(O)C[C@H](OC(=O)[C@H](OC(=O)CCCc4cn(CCCCCCCCCCC(=O)N(CCCC[C@H](NC(=O)N[C@@H](CCC(=O)O)C(=O)O)C(=O)O)Cc5ccc(Br)cc5)nn4)[C@@H](NC(=O)c4ccccc4)c4ccccc4)C(C)=C1C3(C)C)[C@]1(OC(C)=O)CO[C@@H]1C[C@@H]2O`, the CC50 at 72 h in series [1] was less than 30 nM; in [2], 34 nM; in series [4], less than 30 nM; in series [5] it was less than 30 nM. Further, the CC50 with CWR22R came out at 53 nM; with LNCaP, 67 nM; in the series on PC-3, 25 nM. Moreover, the Selectivity ratio in series [3] was determined as 0.7; in series [6] it was 0.38; in [7] it was 0.18; in series [8], 1.46.

As for `CC(=O)O[C@H]1C(=O)[C@@]2(C)[C@H]([C@H](OC(=O)c3ccccc3)[C@]3(O)C[C@H](OC(=O)[C@H](OC(=O)CCCc4cn(CCCCCC(=O)N(CCCC[C@H](NC(=O)N[C@@H](CCC(=O)O)C(=O)O)C(=O)O)Cc5ccc(F)cc5)nn4)[C@@H](NC(=O)c4ccccc4)c4ccccc4)C(C)=C1C3(C)C)[C@]1(OC(C)=O)CO[C@@H]1C[C@@H]2O`, the CC50 at 72 h in series [1] was less than 30 nM; in [2], 49 nM; in [4], less than 30 nM; in series [5] it was less than 30 nM. Moreover, the CC50 came out at 1320 nM in the series with CWR22R, 365 nM in the series with LNCaP and 740 nM with PC-3. Further, the Selectivity ratio is 0.82 in series [3], 0.59 in series [6], 1.01 in [7] and 0.48 in series [8].

On to `CC(=O)O[C@H]1C(=O)[C@@]2(C)[C@H]([C@H](OC(=O)c3ccccc3)[C@]3(O)C[C@H](OC(=O)[C@H](OC(=O)CCCc4cn(CCCCCCCCCCC(=O)N(CCCC[C@H](NC(=O)N[C@@H](CCC(=O)O)C(=O)O)C(=O)O)Cc5ccc(Cl)cc5)nn4)[C@@H](NC(=O)c4ccccc4)c4ccccc4)C(C)=C1C3(C)C)[C@]1(OC(C)=O)CO[C@@H]1C[C@@H]2O`, for which the CC50 at 72 h in series [1] was 24 nM; in series [2], 56.5 nM; in series [4] it was 23 nM; in series [5] it was less than 30 nM. Moreover, the CC50 in the series on CWR22R stood at 120 nM; in the series on LNCaP, 44 nM; in the series on PC-3, 20 nM. Further, the Selectivity ratio in [3] was 0.24; in [6], 0.43; in [7], 0.22; in [8] it was 0.47.

These data come from ChEMBL document CHEMBL4387766, “Synthesis and biological evaluation of PSMA-targeting paclitaxel conjugates” (Bioorg Med Chem Lett, 2019).
